# Source: PubChem BioAssay (NCI)
#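 Five compound concentrations were applied to cells in 96-well plates for 48 hours; endpoints were derived by simple linear interpolation of the resulting dose-response curve. Abbreviation: GI50, concentration required for 50% inhibition of growth. TGI marks complete inhibition of growth.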 Where a SMILES comes first, the peptide text is derived from it. [ ]: non-standard residue; d: D form. The star is where a group is joined. Benzoyl(4-OMe) = COc1ccc(C(=O)*)cc1; 2Thi = N[CH](Cc1cccs1)C(=O)O
# Assays:
# Assay in all cases: DTP human tumour cell line panel, 48 h
# [1] = system: SNB-19 CNS
# [2] = system: NCI-H226 lung
# [3] = system: M14 melanoma
# [4] = system: HS 578T breast
# [5] = system: EKVX NSCLC
# [6] = system: BT-549 breast
# [7] = system: U251 CNS
# [8] = system: HT29 colon
# [9] = system: IGROV1 ovarian
# [10] = system: MOLT-4 leukemia
# [11] = system: SR leukemia
# [12] = system: SF-295 CNS
# [13] = system: ACHN renal
# [14] = system: DU-145 prostate
# [15] = system: SNB-75 CNS
# [16] = system: HOP-62 NSCLC
# [17] = system: PC-3 prostate
# [18] = system: SK-MEL-5 melanoma
# [19] = system: SK-MEL-28 melanoma
# [20] = system: SF-268 CNS
# [21] = system: RPMI-8226 leukemia
# [22] = system: K-562 leukemia
# [23] = system: LOX IMVI melanoma
# [24] = system: CCRF-CEM leukemia
# [25] = system: HCT-116 colon
# [26] = system: OVCAR-3 ovarian
# [27] = system: SN12C renal
# [28] = system: OVCAR-8 ovarian
# [29] = system: HOP-92 NSCLC
# [30] = system: SF-539 CNS
# [31] = system: UACC-62 melanoma
# [32] = system: A498 renal
# [33] = system: SK-OV-3 ovarian
# [34] = system: SW-620 colon
# [35] = system: NCI-H522 lung
# [36] = system: MDA-MB-231 breast
# [37] = system: HCC-2998 colon
# [38] = system: MDA-MB-435
# [39] = system: OVCAR-5 ovarian
# [40] = system: 786-0 renal
# [41] = system: KM12 colon
# [42] = system: OVCAR-4 ovarian
# [43] = system: A549 NSCLC
# [44] = system: UACC-257 melanoma
# [45] = system: COLO 205 colon
# [46] = system: MCF7 breast
# [47] = system: UO-31 renal
# [48] = system: NCI-H23 lung
# [49] = system: NCI-H460 lung
# [50] = system: RXF 393 renal
# [51] = system: CAKI-1 renal
# [52] = system: MALME-3M melanoma
# [53] = system: SK-MEL-2 melanoma
# [54] = system: TK-10 renal
# [55] = system: HL-60(TB) leukemia
# [56] = system: HCT-15 colon
# [57] = system: NCI/ADR-RES ovarian
# [58] = system: T-47D breast
compound,measurement,setting,value
O=C(CNc1cccc(Cl)c1)Nn1c(-c2ccccc2)nc2ccccc2c1=O,TGI,[1],31.6 µM
same,TGI,[2],35.3 µM
same,TGI,[3],6.19 µM
same,TGI,[4],65 µM
same,TGI,[5],34.4 µM
same,TGI,[6],3.95 µM
same,TGI,[7],3.41 µM
same,TGI,[8],24.9 µM
same,TGI,[9],17.9 µM
same,TGI,[10],8.62 µM
same,TGI,[11],> 100 µM
same,TGI,[12],28.5 µM
same,TGI,[13],26.5 µM
same,TGI,[14],44.9 µM
same,TGI,[15],13.8 µM
same,TGI,[16],30.8 µM
same,TGI,[17],22.9 µM
same,TGI,[18],2.88 µM
same,TGI,[19],29.9 µM
same,TGI,[20],22.9 µM
same,TGI,[21],> 100 µM
same,TGI,[22],18.1 µM
same,TGI,[23],2740 nM
same,TGI,[24],8.73 µM
same,TGI,[25],4.07 µM
same,TGI,[26],21.1 µM
same,TGI,[27],13.6 µM
same,TGI,[28],> 100 µM
same,TGI,[29],7.45 µM
same,TGI,[30],13.6 µM
same,TGI,[31],7.83 µM
same,TGI,[32],43.5 µM
same,TGI,[33],23.7 µM
same,TGI,[34],7.37 µM
same,TGI,[35],2980 nM
same,TGI,[36],10.8 µM
same,TGI,[37],23.9 µM
same,TGI,[38],15.2 µM
same,TGI,[39],32.8 µM
same,TGI,[40],7.24 µM
same,TGI,[41],24.9 µM
same,TGI,[42],19.3 µM
same,TGI,[43],46.4 µM
same,TGI,[44],42.2 µM
same,TGI,[45],20.2 µM
same,TGI,[46],4.32 µM
same,TGI,[47],31 µM
same,TGI,[48],8.11 µM
same,TGI,[49],29.2 µM
CC(=O)c1sc2c(c1OC(=O)c1ccc(Cl)cc1)c(=O)n(-c1ccccc1)c(=S)n2-c1ccccc1,TGI,[1],> 42.9 µM
same,TGI,[2],5.56 µM
same,TGI,[3],5.48 µM
same,TGI,[4],9.72 µM
same,TGI,[5],77.8 µM
same,TGI,[7],15 µM
same,TGI,[8],8.95 µM
same,TGI,[9],37.8 µM
same,TGI,[10],6.68 µM
same,TGI,[11],23.1 µM
same,TGI,[50],5.91 µM
same,TGI,[12],5.88 µM
same,TGI,[13],15.7 µM
same,TGI,[51],> 47 µM
same,TGI,[14],> 100 µM
same,TGI,[15],23.3 µM
same,TGI,[16],24.1 µM
same,TGI,[17],> 100 µM
same,TGI,[18],7.61 µM
same,TGI,[19],> 31.8 µM
same,TGI,[52],4.51 µM
same,TGI,[53],3.7 µM
same,TGI,[20],> 100 µM
same,TGI,[21],8.56 µM
same,TGI,[22],38.4 µM
same,TGI,[54],87.4 µM
same,TGI,[55],30.6 µM
same,TGI,[23],6920 nM
same,TGI,[24],7.41 µM
same,TGI,[25],25.2 µM
same,TGI,[26],41.6 µM
same,TGI,[27],6.43 µM
same,TGI,[28],15.1 µM
same,TGI,[29],15.8 µM
same,TGI,[30],5.06 µM
same,TGI,[31],42.6 µM
same,TGI,[32],3.64 µM
same,TGI,[33],7.03 µM
same,TGI,[34],70.7 µM
same,TGI,[35],18900 nM
same,TGI,[36],19.2 µM
same,TGI,[37],> 58.3 µM
same,TGI,[56],25.8 µM
same,TGI,[38],> 36.8 µM
same,TGI,[39],13.2 µM
same,TGI,[40],15.9 µM
same,TGI,[41],44.7 µM
same,TGI,[42],65.5 µM
same,TGI,[43],> 76.1 µM
same,TGI,[44],38.4 µM
same,TGI,[45],13.8 µM
same,TGI,[46],71.9 µM
same,TGI,[57],23 µM
same,TGI,[47],9.24 µM
same,TGI,[48],> 68.6 µM
same,TGI,[49],22.1 µM
same,TGI,[58],> 69.4 µM
CCC(C)C(NC(=O)C(Cc1cccs1)NC(=O)C(CC(C)C)NC(=O)C(CC(C)C)NC(=O)C(CCCCN)NC(=O)C(CCCN=C(N)N)NC(=O)c1ccc(OC)cc1)C(=O)NC(CC(C)C)C(N)=O (stereo not drawn) ({Benzoyl(4-OMe)}-RKLL[2Thi]IL-NH2; configuration not given here),TGI,[2],> 100 µM
same,TGI,[6],> 100 µM
same,TGI,[44],> 100 µM
same,TGI,[48],> 100 µM
COc1cc(-c2nc3ccc(C)cc3[nH]2)ccc1OCC(=O)N=Nc1c(O)[nH]c2ccc(Cl)cc12,GI50,[1],1.91 µM
same,TGI,[1],5.57 µM
same,GI50,[5],3.85 µM
same,TGI,[5],> 100 µM
same,GI50,[6],2970 nM
same,TGI,[6],> 100 µM
same,GI50,[7],418 nM
same,TGI,[7],1.66 µM
same,GI50,[50],1590 nM
same,TGI,[50],3.04 µM
same,GI50,[12],1.8 µM
same,TGI,[12],3.36 µM
same,GI50,[13],3640 nM
same,TGI,[13],> 100 µM
same,GI50,[51],1430 nM
same,TGI,[51],2.93 µM
same,GI50,[15],1430 nM
same,TGI,[15],3.72 µM
same,GI50,[16],2.31 µM
same,TGI,[16],7.02 µM
same,GI50,[52],1640 nM
same,TGI,[52],3.14 µM
same,GI50,[54],3.48 µM
same,TGI,[54],9.5 µM
same,GI50,[23],289 nM
same,TGI,[23],1010 nM
same,GI50,[29],1910 nM
same,TGI,[29],7.05 µM
same,GI50,[30],1630 nM
same,TGI,[30],3.05 µM
same,GI50,[33],3.44 µM
same,TGI,[33],> 100 µM
same,GI50,[36],438 nM
same,TGI,[36],1.67 µM
same,GI50,[56],2130 nM
same,TGI,[56],> 100 µM
same,GI50,[42],2240 nM
same,TGI,[42],4.83 µM
same,GI50,[57],> 100 µM
same,TGI,[57],> 100 µM
same,GI50,[48],2060 nM
same,TGI,[48],6.18 µM
N#Cc1c(-c2ccccc2)cc(-c2ccccc2)n(CC(=O)NO)c1=O,GI50,[1],7.09 µM
same,TGI,[1],73.3 µM
same,GI50,[2],13.7 µM
same,TGI,[2],57.5 µM
same,GI50,[3],4.16 µM
same,TGI,[3],19.1 µM
same,GI50,[4],2000 nM
same,TGI,[4],7.15 µM
same,GI50,[5],3.45 µM
same,TGI,[5],97 µM
same,GI50,[7],4910 nM
same,TGI,[7],86.3 µM
same,GI50,[8],3.07 µM
same,TGI,[8],12.2 µM
same,GI50,[10],1700 nM
same,TGI,[10],4.92 µM
same,GI50,[11],593 nM
same,TGI,[11],4.48 µM
same,GI50,[50],1610 nM
same,TGI,[50],5.92 µM
same,GI50,[12],7.47 µM
same,TGI,[12],33.8 µM
same,GI50,[13],1090 nM
same,TGI,[13],> 100 µM
same,GI50,[51],3400 nM
same,TGI,[51],> 100 µM
same,GI50,[14],6.37 µM
same,TGI,[14],> 100 µM
same,GI50,[15],1610 nM
same,TGI,[15],6.36 µM
same,GI50,[16],6.99 µM
same,TGI,[16],58.3 µM
same,GI50,[17],2250 nM
same,TGI,[17],14 µM
same,GI50,[18],1930 nM
same,TGI,[18],4.71 µM
same,GI50,[19],6.7 µM
same,TGI,[19],77.4 µM
same,GI50,[52],3000 nM
same,TGI,[52],27.3 µM
same,GI50,[53],2850 nM
same,TGI,[53],9.13 µM
same,GI50,[20],3.66 µM
same,TGI,[20],94.3 µM
same,GI50,[21],1350 nM
same,TGI,[21],4.77 µM
same,GI50,[22],1800 nM
same,TGI,[22],4.67 µM
same,GI50,[54],5.92 µM
same,TGI,[54],> 100 µM
same,GI50,[23],176 nM
same,TGI,[23],333 nM
same,GI50,[24],491 nM
same,TGI,[24],3.07 µM
same,GI50,[25],2570 nM
same,TGI,[25],> 100 µM
same,GI50,[27],4.27 µM
same,TGI,[27],> 100 µM
same,GI50,[28],8.02 µM
same,TGI,[28],> 100 µM
same,GI50,[29],2150 nM
same,TGI,[29],8.17 µM
same,GI50,[30],3830 nM
same,TGI,[30],25.7 µM
same,GI50,[31],2250 nM
same,TGI,[31],6.01 µM
same,GI50,[32],2170 nM
same,TGI,[32],7.99 µM
same,GI50,[33],6.24 µM
same,TGI,[33],53.5 µM
same,GI50,[34],8.87 µM
same,TGI,[34],> 100 µM
same,GI50,[35],427 nM
same,TGI,[35],1820 nM
same,GI50,[36],4750 nM
same,TGI,[36],68 µM
same,GI50,[37],3.74 µM
same,TGI,[37],20.9 µM
same,GI50,[56],3550 nM
same,TGI,[56],28.8 µM
same,GI50,[38],3.03 µM
same,TGI,[38],> 100 µM
same,GI50,[39],11.1 µM
same,TGI,[39],> 100 µM
same,GI50,[40],5.59 µM
same,TGI,[40],28 µM
same,GI50,[42],3530 nM
same,TGI,[42],> 100 µM
same,GI50,[43],4.57 µM
same,TGI,[43],> 100 µM
same,GI50,[44],10.8 µM
same,TGI,[44],37.4 µM
same,GI50,[45],5.62 µM
same,TGI,[45],72.3 µM
same,GI50,[46],1450 nM
same,TGI,[46],3.82 µM
same,GI50,[57],3.41 µM
same,TGI,[57],> 100 µM
same,GI50,[47],1840 nM
same,TGI,[47],9.75 µM
same,GI50,[48],3580 nM
same,TGI,[48],81.4 µM
same,GI50,[49],3.02 µM
same,TGI,[49],> 100 µM
same,GI50,[58],1410 nM
same,TGI,[58],6.88 µM
